# According to PMC9995496, “A screen for MeCP2-TBL1 interaction inhibitors using a luminescence-based assay” (Scientific Reports, 2023):
# Where a name gives a salt, the structure may show the parent alone.
# System: PRKACA-PRKAR2A interaction (SmBiT-PRKACA / LgBiT-PRKAR2A), protein kinase A
# Parameters: NanoLuc complementation counter-screen in cell extract, PRKACA with PRKAR2A, loss of luminescence, detects NanoLuc interference
# Conditions: 0.5 h, 20 µM; inhibitor
row,SMILES,Inh (PKA) [%]
1,"O=P1(NCCCl)OCCCN1CCCl (centres unmarked) [UM0118931:03, Ifosfamide]",-0.3336

# Same assay, conditions: counter-screen for NanoLuc interference, 0.5 h, 20 µM, inhibitor, Inh (PKA)
row,Inh (PKA) [%],SMILES
1,0.5416,"NCCc1c[nH]cn1 [UM0119882:03, Histamine 2HCl]"

# Same assay, conditions: counter-screen for NanoLuc interference; 0.5 h, 20 µM; inhibitor
row,SMILES,Inh (PKA) [%]
1,"CCN[C@H]1C[C@H](C)S(=O)(=O)c2sc(S(N)(=O)=O)cc21 [UM0118923:03, Dorzolamide HCl]",-0.4651
2,"Cc1c(OCC(F)(F)F)ccnc1C[S+]([O-])c1nc2ccccc2[nH]1 (centres unmarked) [UM0118982:03, Lansoprazole]",1.885
3,"Cc1c(OCC(F)(F)F)ccnc1C[S@@+]([O-])c1nc2ccccc2[nH]1 [UM0118982:04, Dexlansoprazole]",2.726
4,"CC(C)(C(=O)c1cccnc1)c1cccnc1 [UM0119067:03, Metyrapone]",1.858
5,"O=C(O[C@@H]1Cc2c(O)cc(O)cc2O[C@@H]1c1cc(O)c(O)c(O)c1)c1cc(O)c(O)c(O)c1 [UM0119174:03, (-)-Epigallocatechin gallate (EGCG)]",17.48
6,"O=C1Cc2c([nH]c3ccc(Br)cc23)-c2ccccc2N1 [UM0119194:04, Kenpaullone]",40.47
7,"O=c1oc2c(O)c(O)cc3c(=O)oc4c(O)c(O)cc1c4c23 [UM0119370:03, Ellagic acid]",2.639
8,"CCCCCCCCCCC[C@@H](C[C@@H]1OC(=O)[C@H]1CCCCCC)OC(=O)[C@H](CC(C)C)NC=O [UM0119382:03, Orlistat]",-0.3481
9,"C=CCc1ccc(O)c(-c2ccc(O)c(CC=C)c2)c1 [UM0119411:03, Honokiol]",48.27
10,"c1ccc2c(Cc3c[nH]c4ccccc34)c[nH]c2c1 [UM0119470:03, 3,3'-Diindolylmethane]",34.9
11,"Nc1ccncc1 [UM0119500:03, 4-Aminopyridine]",0.4521
12,"CC(=O)N[C@@H](CS)C(=O)O [UM0119535:03, Acetylcysteine]",1.097
13,"Nc1nnc(-c2cccc(Cl)c2Cl)c(N)n1 [UM0119947:03, Lamotrigine]",0.956
14,"NC(=O)c1ncn([C@@H]2O[C@H](CO)[C@@H](O)[C@H]2O)c1O [UM0119983:03, Mizoribine]",-0.2089
15,"CSC(=N)N [UM0119990:03, (S)-Methylisothiourea sulfate]",-0.9184
16,"O=[N+]([O-])c1cccc2cn[nH]c12 [UM0120050:03, 7-Nitroindazole]",2.182
17,"S=C(S)N1CCCC1 [UM0120164:03, Pyrrolidinedithiocarbamate ammonium]",13.75
18,"NCCS(=O)(=O)O [UM0120232:03, Taurine]",-1.533

row,SMILES,Inh (PKA) [%]
1,"N#CC(C#N)=Cc1ccc(O)c(O)c1 [UM0120250:03, AG-18]",48.6
2,"CC(C)(C)c1cc(C=C(C#N)C#N)cc(C(C)(C)C)c1O [UM0120315:03, Tyrphostin 9]",80.34
3,"Nc1nccs1 [UM0120610:02, Aminothiazole]",1.156
4,"N[C@@H](CCC(=O)N[C@@H](CS)C(=O)NCC(=O)O)C(=O)O [UM0120654:03, L-Glutathione Reduced]",-0.7865
5,"COc1ccnc(C[S+]([O-])c2nc3cc(OC(F)F)ccc3[nH]2)c1OC (centres unmarked) [UM0121277:03, Pantoprazole]",-0.2371
6,"Cc1ccc(-c2cc(C(F)(F)F)nn2-c2ccc(S(N)(=O)=O)cc2)cc1 [UM0121289:03, Celecoxib]",16.21
7,"O=C(O)CC(O)(CC(=O)O)C(=O)O [UM0121350:03, Lithium Citrate]",-1.116
8,"Oc1c(Cl)cc(Cl)c(Cl)c1Cc1c(O)c(Cl)cc(Cl)c1Cl [UM0121388:04, Hexachlorophene]",52.78
9,"CC[C@H]1OC(=O)[C@H](C)[C@@H](O[C@H]2C[C@@](C)(OC)[C@@H](O)[C@H](C)O2)[C@H](C)[C@@H](O[C@@H]2O[C@H](C)C[C@H](N(C)C)[C@H]2O)[C@](C)(O)C[C@@H](C)CN(C)[C@H](C)[C@@H](O)[C@]1(C)O [UM0121404:03, Azithromycin]",0.6112
10,"CC[C@H]1OC(=O)[C@H](C)[C@@H](O[C@H]2C[C@@](C)(OC)[C@@H](O)[C@H](C)O2)[C@H](C)[C@@H](O[C@@H]2O[C@H](C)C[C@H](N(C)C)[C@H]2O)[C@](C)(OC)C[C@@H](C)C(=O)[C@H](C)[C@@H](O)[C@]1(C)O [UM0121462:03, Clarithromycin]",0.9252
11,"COC(=O)N[C@H](C(=O)N1CCC[C@H]1c1ncc(-c2ccc(-c3ccc(-c4cnc([C@@H]5CCCN5C(=O)[C@@H](NC(=O)OC)C(C)C)[nH]4)cc3)cc2)[nH]1)C(C)C [UM0125917:02, Daclatasvir (BMS-790052)]",3.854
12,"CC(C)(C)c1cc(C=C(C#N)C#N)cc(Br)c1O [UM0127805:02, AG-1024]",81.26
13,"O=c1[nH]c2ccccc2n1C1CCN(Cc2ccc(-c3[nH]c4cc5ncnc5cc4nc3-c3ccccc3)cc2)CC1 [UM0127809:02, AKT inhibitor VIII]",16.69
14,"c1cc(-c2cnn3cc(-c4ccc(OCCN5CCCCC5)cc4)cnc23)ccn1 [UM0127814:02, Dorsomorphin]",19.2
15,"CN(C)CCCn1cc(C2=C(c3c[nH]c4ccccc34)C(=O)NC2=O)c2ccccc21 [UM0127819:02, GF 109203X]",67.69
16,"Nc1[nH]nc2nnc(-c3c(-c4ccccc4)nn4ccccc34)cc12 [UM0127848:03, FR 180204]",1.354
17,"COc1ccc(COc2ccc(Cc3cnc(N)nc3N)cc2OC)cc1 [UM0127855:02, GW2580]",7.237
18,"COc1ccc2c(c1)c(C1=C(c3c[nH]c4ccccc34)C(=O)NC1=O)cn2CCCN(C)C [UM0127865:02, Go 6983]",49.99

# More lines, now with the values ahead:
row,Inh (PKA) [%],SMILES
1,-0.219,"CCN[C@H]1CN(CCCOC)S(=O)(=O)c2sc(S(N)(=O)=O)cc21 [UM0118906:03, Brinzolamide]"
2,-0.2471,"CS(=O)(=O)c1ccc([C@@H](O)[C@@H](CF)NC(=O)C(Cl)Cl)cc1 [UM0118980:03, Florfenicol]"
3,9.84,"CC(C)(Oc1ccc(C2CC2(Cl)Cl)cc1)C(=O)O (centres unmarked) [UM0119000:03, Ciprofibrate]"
4,2.691,"CCOC(=O)c1ccc(OC(=O)CCCCCNC(=N)N)cc1 [UM0119043:03, Gabexate mesylate]"
5,8.926,"Nc1ccc(O)c(C(=O)O)c1 [UM0119062:03, Mesalamine]"
6,21.46,"Cc1cccc(Nc2ccncc2S(=O)(=O)NC(=O)NC(C)C)c1 [UM0119116:03, Torsemide]"
7,1.275,"CC(=O)Oc1ccccc1C(=O)O [UM0119503:03, Aspirin (Acetylsalicylic acid)]"
8,4.422,"COc1ccc(C(=O)N2CCCC2=O)cc1 [UM0119560:03, Aniracetam]"
9,-0.9754,"NC(=O)c1ccccc1 [UM0119596:03, Benzamide]"
10,4.034,"O=C1CCc2cc(OCCCCc3nnnn3C3CCCCC3)ccc2N1 [UM0119639:03, Cilostazol]"
11,2.512,"C[C@@](Cc1ccc(O)c(O)c1)(NN)C(=O)O [UM0119735:03, Carbidopa]"
12,1.983,"NCCc1ccc(O)c(O)c1 [UM0119875:03, Dopamine HCl]"
13,17.89,"O=S(=O)(c1cccc2c(I)cccc12)N1CCCNCC1 [UM0119920:03, ML-7 hydrochloride]"
14,40.28,"COc1ccc2c(c1)c(CC(=O)N1CCOCC1)c(C)n2C(=O)c1ccc(Cl)cc1 [UM0119946:02, BML-190]"
15,12.97,"COc1cc2c(cc1O)CC[C@@H]1[C@@H]2CC[C@]2(C)[C@@H](O)CC[C@@H]12 [UM0119979:04, 2-Methoxyestradiol (2-MeOE2)]"
16,18.59,"CC(C)N(CCC(=O)c1ccc2ccccc2c1)Cc1ccccc1 [UM0120052:04, ZM 39923 HCl]"
17,0.7851,"CNC[C@H](O)c1cccc(O)c1 [UM0120096:03, Phenylephrine HCl]"

row,Inh (PKA) [%],SMILES
1,1.741,"O=c1oc2cc(O)ccc2s1 [UM0120621:02, Tioxolone]"
2,-0.4526,"O=C(O)c1cc(O)c(O)c(O)c1 [UM0120666:03, Gallic acid]"
3,14.51,"Cc1cc(O)c2c(c1)C(=O)c1cccc(O)c1C2=O [UM0121046:03, Chrysophanol]"
4,-0.3205,"CN(C)CCC[C@@]1(c2ccc(F)cc2)OCc2cc(C#N)ccc21 [UM0121246:02, Escitalopram Oxalate]"
5,6.005,"CCC(=O)NCC[C@@H]1CCc2ccc3c(c21)CCO3 [UM0121254:03, Ramelteon]"
6,9.885,"Cc1onc(-c2ccccc2)c1-c1ccc(S(N)(=O)=O)cc1 [UM0121300:03, Valdecoxib]"
7,12.71,"CN(CCOc1ccc(CC2SC(=O)NC2=O)cc1)c1ccccn1 (centres unmarked) [UM0121306:03, Rosiglitazone]"
8,-0.4605,"CN(C)CCc1c[nH]c2ccc(C[C@H]3COC(=O)N3)cc12 [UM0121308:03, Zolmitriptan]"
9,-0.4329,"CCOC(=O)[C@H](CCc1ccccc1)N[C@H]1CCc2ccccc2N(CC(=O)O)C1=O [UM0121340:03, Benazepril HCl]"
10,14.3,"O=c1cc(-c2cccc3c2Sc2ccccc2S3)oc(N2CCOCC2)c1 [UM0127803:03, KU 55933]"
11,37.52,"NC(=O)c1ccc(-c2nc(-c3ccc4c(c3)OCCO4)c(-c3ccccn3)[nH]2)cc1 [UM0127827:02, D4476]"
12,6.845,"COc1ccc(CNc2nc(N(CCO)CCO)nc3c2ncn3C(C)C)cc1 [UM0127838:02, CVT-313]"
13,19.65,"COc1ccc(C(=O)Nc2sc3c(c2C(N)=O)CCCC3)cc1OC [UM0127852:02, TCS 359]"
14,41.7,"Cn1sc(=O)n(Cc2ccccc2)c1=O [UM0127856:02, TDZD-8]"
15,66.01,"COc1ccc(CNC(=O)Nc2ncc([N+](=O)[O-])s2)cc1 [UM0127858:02, AR-A014418]"
16,24.46,"Nc1cccc(-c2cc3c(Oc4cccc(O)c4)ncnc3[nH]2)c1 [UM0127862:03, TWS119]"
